Data on 10 substances can be found in PMC10974242, “Killing of Plasmodium Sporozoites by Basic Amphipathic α-Helical Fusion Peptides” (Microorganisms, 2024).

Values joined by “and” are separate entries in the source; they are usually repeats but may differ in a detail not shown here. Equal values may be shown once. No end group written: not given here. *: point of attachment. FITC = O=C1OC2(c3ccc(O)cc3Oc3cc(O)ccc32)c2ccc(NC(=S)*)cc21

The subject of one series is P. knowlesi oocysts. The settings on record: in vivo, at concentrations that start to be toxic to mosquitoes; cited from earlier work.
The subject of series [1] is P. yoelii (Py) salivary gland sporozoites. Kind of series: Sporozoite cytotoxicity assay (PI uptake / loss of fluorescence). Type of series: cell-based, P. yoelii 17XNL. The settings on record: 100 µM, 45 min incubation, 10% FCS/PBS; 3-4 independent experiments. As to the method: To assess the cytotoxic effect of the different peptides on sporozoites, we performed an in vitro assay as previously described. Briefly, sporozoites were incubated at 37 °C for 45 min with different peptides in the presence of 10% fetal calf serum (FCS). Samples were next, incubated for 10 min with 5 µg/mL propidium iodide (PI, Invitrogen, WA, USA) on ice and either imaged in an inverted Axio Observer Z.1 microscope (Zeiss, Oberkochen, Germany) and analyzed using Fiji or diluted 10 times with cold PBS before acquisition on a CytoFLEX S flow cytometer (Beckman Coulter, Brea, CA, USA). For the Pf cytotoxic assay, a final concentration of 0.5 µM cytochalasin D (Sigma-Aldrich) was used in some conditions. […] Data were analyzed using the CytExpert 2.0 software (Beckman Coulter).
(§1) To evaluate the killing of plasmodial sporozoites by membrane-active molecules, we tested the activity of cationic amphipathic α-helical peptides listed in Figure 1 on P. berghei (Pb), P. yoelii (Py), and P. falciparum (Pf) salivary gland sporozoites in vitro. Quantification of sporozoite death was measured by flow cytometry based on the uptake of propidium iodide (PI), a live cell impermeant nucleic acid fluorescent dye, and/or by the loss of parasite fluorescence following 45 min incubation at 37 °C in PBS 10% fetal calf serum (FCS).

Another series has as its system P. cynomolgi oocysts. The following applies: in vivo, at concentrations that start to be toxic to mosquitoes; cited from earlier work.
Series [2] relates to P. berghei (Pb) salivary gland sporozoites. The series is classed as cell-based, P. berghei ANKA. The settings on record: for killing of GFP-expressing Pb sporozoites (in words): 3-9 independent experiments. As to the method: (§2) To assess the cytotoxic effect of the different peptides on sporozoites, we performed an in vitro assay as previously described. Briefly, sporozoites were incubated at 37 °C for 45 min with different peptides in the presence of 10% fetal calf serum (FCS). Samples were next, incubated for 10 min with 5 µg/mL propidium iodide (PI, Invitrogen, WA, USA) on ice and either imaged in an inverted Axio Observer Z.1 microscope (Zeiss, Oberkochen, Germany) and analyzed using Fiji or diluted 10 times with cold PBS before acquisition on a CytoFLEX S flow cytometer (Beckman Coulter, Brea, CA, USA). For the Pf cytotoxic assay, a final concentration of 0.5 µM cytochalasin D (Sigma-Aldrich) was used in some conditions. Viability was defined as the percentage of GFP+PI- sporozoites to the sum of GFP+PI-, GFP+PI+, and GFP-PI+ sporozoites. Data were analyzed using the CytExpert 2.0 software (Beckman Coulter).
as §1

In series [3] the test system is Escherichia coli DH5α (Ec). Kind of series: E. coli viability, CFU quantification after incubation with cecropin B. The following applies: 2 µM cecropin B, 10 min, 37 °C, 10% FCS/PBS, CFU normalised to control; 3-4 independent experiments. The series is classed as cell-based. The protocol:
Escherichia coli DH5α (Ec) were grown at 37 °C under agitation in LB medium at an OD620 of approximately 0.35 (corresponding to 10^8 CFU/mL). After centrifugation and washing with PBS, the equivalent of 10^7 colony-forming units (CFUs)/mL were incubated at 37 °C for 10 min with or without Cecropin B (Sigma-Aldrich) in 10%FCS/PBS at concentrations ranging from 2 to 100 μM. The suspensions of bacteria were diluted 1000× in PBS and 50 µL were spread on LB-agar plates for CFU quantification. Viability was assessed by normalizing the number of CFU to the control group. A sample of E. coli heated at 70 °C for 10 min was used as a death control.
Cecropin B is a prototypical antimicrobial peptide (AMP, Figure 1) discovered in the hemolymph of the Cecropia moth. […] Since our sporozoite killing assay contains 10% FCS, which can inhibit the antimicrobial activity of several AMPs, we first tested the antimicrobial activity of cecropin B in the presence of 10% FCS.

The test system of another series is Pf oocysts. The following applies: in vivo, at concentrations that start to be toxic to mosquitoes; cited from earlier work.
Series [4] deals with P. gallinaceum sporozoites. The following applies: 250 µM; cited from earlier work. The protocol:
Many natural antimicrobial peptides (AMPs), such as magainin, cecropin, and defensins, can kill oocysts from different plasmodial species when injected or over-expressed in the insect hemolymph. However, avian-infecting P. gallinaceum sporozoites are resistant to incubation with 250 µM of the AMPs metalnikowin, thanatin, drosocin, and metchnikowin. […] Yet, despite rendering mosquitoes susceptible to Gram-positive bacterial challenge, the k ...

In series [5] the test system is P. falciparum (Pf) salivary gland sporozoites. The series is described as follows: Sporozoite cytotoxicity assay (PI uptake), with or without cytochalasin D. The following applies: 45 min, 37 °C; for killing of Pf sporozoites (in words): 20 µM peptide, PBS 10% FCS. Type of series: cell-based. The protocol:
as §2, §1

Series [6] deals with CD4+ T cells susceptible to HIV infection. The following applies: cited from earlier work. An excerpt:
(§3) We next tested the killing activity of a series of cationic amphipathic peptides consisting of penetratin (Figure 1, RK16), a cell-penetrating peptide (CPP) derived from the Drosophila melanogaster homeotic protein antennapedia a-helix 3 [25], fused with peptides derived from the a-helix 18 of the antiapoptosis clone 11 (AAC11) also known as Apoptosis Inhibitor 5 protein [26] (Figure 1, RL37, RT39, and RT53).

A further series has as its system cancer cells. The settings on record: cited from earlier work.
From the text: as §3

The subject of series [7] is P. berghei (Pb) salivary gland sporozoites. Type of series: cell-based, P. berghei ANKA. The following applies: 20 µM peptide, 37 °C, flow cytometry, n = 2.
A further series deals with Pb sporozoites. The series is described as follows: Dynamic microscopy and gliding motility assay of sporozoites. Type of series: cell-based, P. berghei ANKA. The protocol:
To visualize the killing of the sporozoites by the peptide, Pb sporozoites expressing mCherry were incubated with 20 μM of RT39 and RT39-FITC. First, 5000 sporozoites were activated in 10% FCS/PBS on an 18-well slide (iBidi, Gräfelfing, Germany). After 5 min, the peptide was added with 1 μM of To-Pro 3 and the sporozoites were immediately recorded for 15–30 min using a spinning-disk confocal system (UltraView ERS, PerkinElmer, Shelton, CT, USA) controlled by Volocity (PerkinElmer), composed of 4 Diode Pumped Solid State Lasers, a Yokogawa Confocal Scanner Unit CSU22, a z-axis piezoelectric actuator, and a Hamamatsu Orca-Flash 4.0 camera mounted on a Axiovert 200 microscope (Zeiss). Time-lapses were analyzed using Fiji.
To assess gliding motility, 5000 sporozoites were resuspended in 10% FCS/PBS in a final volume of 10 µL. The resulting suspension was transferred to an 18-well slide (iBidi) and centrifuged at 400× g for 3 min at 4 °C. The slide was then allowed to equilibrate at 37 °C, 5% CO2 for 3 min in the incubation chamber (Incubation System S, Zeiss) of an inverted epifluorescence wide-field microscope (AxioObserver Z.1, Zeiss) equipped with a LED illumination system (Colibri2, Zeiss), a CCD camera (AxioCam MR, Zeiss), and controlled by the AxioVision software (version 4.8.2.0, Zeiss). After 3 min, a time-lapse movie at a rate of one image per second was recorded for 2 min to control for initial parasite motility. After the 2 min recording, 10 µL of PBS or 20 µM of RT39 were added on top, and the parasites were immediately imaged for 20 min. The average sporozoite velocity at different time points was determined using the MTrack2 plug-in from Fiji.
RT39 induced a fast killing of Pb sporozoites in comparison with anti-CSP antibody as measured by flow cytometry. While 20 µM of the cytotoxic peptide killed most parasites before 5 min of incubation, 10 µg/mL of cytotoxic antibody needed more than 20 min to eliminate the majority of sporozoites (Figure 3A). To better understand the way RT39 is acting on Pb sporozoites, we dynamically imaged the cytotoxic effect of the peptide on fluorescent sporozoites in the presence of To-Pro 3, a live-cell impermeant far-red fluorescent nucleic acid dye. Given its fast-killing kinetics, RT39 was added to a microscopy chamber containing PBS 10% FCS and sporozoites, which were immediately recorded for 20 min at 37 °C. In the presence of FCS, most sporozoites move in a circular way in a substrate-dependent manner. Sporozoite death was assessed by the incorporation of To-Pro 3 and/or by the loss of cytoplasmic fluorescence. Following the addition of RT39 to sporozoites, a lag phase of around 5 min was observed, probably corresponding to the diffusion and peptide binding to sporozoites, after which parasites started to die in quick succession (Figure 3B).

The test system of the next series is human cells. The settings on record: cited from earlier work. The source says:
Conversely, RT53, which combines the sequences of two basic amphipathic helical peptides (Figure 1B), one capable of translocating into cells and the other containing a heptad leucine repeat domain, which acts as a protein–protein interaction domain [32, 39], was able to kill Pb and Pf sporozoites.

The mark [8] stands for this setting: 20 µM peptide, 45 min, 37 °C, 10% FCS/PBS, flow cytometry.

Take “cecropin B: cationic amphipathic antimicrobial insect peptide from Hyalophora cecropia, purchased from Sigma-Aldrich (KWKVFKKIEKMGRNIRNGIVKAGPAIAVLGEAKAL; ends and bridges not checked; UniProt P01508 27-61, looked up)”: the “development of P. knowlesi oocysts” value with P. knowlesi oocysts is “inhibit the development”. The “killing of Py sporozoites” value in series [1] was “did not significantly kill”. The “development of P. cynomolgi oocysts” value with P. cynomolgi oocysts was “inhibit the development”. The “killing of Pb sporozoites” value in [2] (100 µM, 45 min incubation, 10% FCS/PBS, 3-4 independent experiments) is reported as “did not significantly kill”. In addition, in series [3], the “killing of E. coli” value was “efficiently kill”. Moreover, the “development of Pf oocysts” value in the series on Pf oocysts is listed as “inhibit the development”.

As to “RQIKIWFQNRRMKWKKKDFKIRLQYFARGLQVYIRQL [RL37, penetratin fused with a peptide derived from the a-helix 18 of AAC11]”, the “killing of GFP-expressing Pb sporozoites (in words)” value in [2] (setting [8]) is on record as “did not significantly kill”.

drosocin: the “susceptibility of P. gallinaceum sporozoites to incubation” value in series [4] was “resistant”.

As to “RQIKIWFQNRRMKWKKLQYFAAGLQVYIRQLRLALQGGKT [RT39M]”, the “Pb sporozoite death compared with RT39” value in [2] (2, 10, 40, 80 μM, 45 min, 37 °C, flow cytometry, n = 3) was “strongly decreased”.

In the case of “RQIKIWFQNRRMKWKKLQYFARGLQVYIRQLRLALQGGKT [RT39, penetratin fused with shorter AAC11 a-helix 18 peptide]”, in series [5] (20 µM peptide vs cytotoxic anti-CSP antibody), the “lethality to Pf sporozoites compared with cytotoxic anti-CSP antibody” value is listed as “as lethal as or more than”. Besides, the “killing of Pf sporozoites (in words)” value in [5] is “stronger killing activity than RT53”. Besides, in series [2] (20 µM peptide vs 10 µg/mL anti-PbCSP (3D11), 45 min, 37 °C), the “lethality to Pb sporozoites compared with cytotoxic anti-CSP antibody” value is “as lethal as or more than”. Also, the “cell death of CD4+ T cells susceptible to HIV infection” value in series [6] is given as “elicit the cell death”. For the same substance, the “cell death of cancer cells” value in the series with cancer cells is recorded as “elicit the cell death”. Moreover, the “incubation time at which most Pb sporozoites are killed” value in series [7] is < 5 min and 5 min. The “time of sudden stop in motility with To-Pro 3 entry and mCherry leakage” value in the series on Pb sporozoites (20 µM RT39, exemplified dying sporozoite) is ~ 450 s. The “effect on sporozoite motility (speed) before permeabilization” value in the series with Pb sporozoites (20 µM RT39, two-minute analysis of speed at end of lag phase or beginning of death plateau, 2-3 independent experiments) is given as “did not significantly impact sporozoite motility”. Moreover, the “lag phase before parasites start to die” value with Pb sporozoites (20 µM RT39 added to sporozoites in PBS 10% FCS, 37 °C, recorded 20 min, microscopy) is reported as “around 5 min”.

Turning to “RQIKIWFQNRRMKWKK [RK16, cell-penetrating peptide derived from the Drosophila melanogaster homeotic protein antennapedia a-helix 3, reference compound]”, in series [2] (setting [8]), the “killing of GFP-expressing Pb sporozoites (in words)” value was “did not significantly kill”.

metchnikowin: the “susceptibility of P. gallinaceum sporozoites to incubation” value in [4] is reported as “resistant”.

Turning to “RQIKIWFQNRRMKWKKAKLNAEKLKDFKIRLQYFARGLQVYIRQLRLALQGKT [RT53]”, in series [5], the “killing of Pf sporozoites (in words)” value is “able to kill”. For the same substance, in series [2] (setting [8]), the Pb sporozoites killed result was “around 50%” and the “killing of GFP-expressing Pb sporozoites (in words)” value was “able to kill”. Besides, in the series with human cells, the “incubation time at which membrane permeabilization plateaus” value is listed as 60 min and the “membrane permeabilization activity compared with RT39” value is on record as “equivalent or higher”. Besides, the “cell death of CD4+ T cells susceptible to HIV infection” value in series [6] was “elicit the cell death”. In the series on cancer cells, the “cell death of cancer cells” value was “elicit the cell death”.

In the case of “{FITC}-RQIKIWFQNRRMKWKKLQYFARGLQVYIRQLRLALQGGKT [RT39-FITC, FITC-labeled RT39]”, in the series on Pb sporozoites (20 µM RT39-FITC in solution, spinning-disk microscopy, 1 μM To-Pro 3, 10% FCS/PBS), the “Ratio MFI SPZ/Bk of live parasites” value is listed as ~ 1. For the same substance, the “site of membrane permeabilization on the sporozoite body” value in the series with Pb sporozoites (20 μM RT39-FITC, 1 μM To-Pro 3, n = 34 sporozoites from 2 independent experiments) is recorded as “frequently occurred at the posterior part of the sporozoite body”.

Consider thanatin, for which the “susceptibility of P. gallinaceum sporozoites to incubation” value in series [4] is “resistant”.
